Measurements from article PMC11580984 (bioRxiv, 2024).
Numbered stars: 1 amine (or outer) side, 2 acyl side, 3 side chain; on linkers, the order of the positions; unused ones are H or OH. Bridge positions count the residues as written; N and C are the ends. Square brackets hold non-standard residues; d marks the D form. Peptide text beside a SMILES is read from it. X1 = O=S(=O)(F)Oc1cc(C[*:1])cc(C[*:2])c1; Pra = C#CC[C@H](N)C(=O)O

Each molecule was assayed against full-length spike Omicron BA2 variant (Severe acute respiratory syndrome coronavirus 2, UniProt P0DTC2, A27S/A892P/A899P/A942P/D405N/D614G/D796Y/DEL24-26/E484A/F817P/G142D/G339D/H655Y/K417N/K986P/N440K/N501Y/N679K/N764K/N969K/P681H/Q493R/Q498R/Q954H/R408S/R683A/R685A/S371F/S373P/S375F/S477N/T19I/T376A/T478K/V213G/V987P/Y505H).
Format: binding, SARS-CoV-2

Row | SMILES | spike labeling
1 | C#CC[C@H](N)C(=O)N[C@@H](CCC(N)=O)C(=O)N[C@H]1CSCc2cc(cc(OS(=O)(=O)F)c2)CSC[C@@H](C(=O)NCC(N)=O)NC(=O)[C@H](CC(C)C)NC(=O)[C@H](C(C)C)NC(=O)[C@H](Cc2ccc(O)cc2)NC(=O)[C@H](CC(C)C)NC(=O)[C@H](CC(=O)O)NC(=O)[C@H](CCC(N)=O)NC(=O)[C@H](C(C)C)NC1=O [CP_SW3A] (H-[Pra]QCVQDLYVLCG-NH2; linker 3-11 via X1) | highest gel labeling intensity
2 | C#CC[C@H](NC(=O)[C@H](CCC(N)=O)NC(=O)[C@@H]1CSCc2cc(cc(OS(=O)(=O)F)c2)CSC[C@H](NC(=O)CN)C(=O)N[C@@H](CC(C)C)C(=O)N[C@@H](C(C)C)C(=O)N[C@@H](Cc2ccc(O)cc2)C(=O)N[C@@H](CC(C)C)C(=O)N[C@@H](CC(=O)O)C(=O)N[C@@H](CCC(N)=O)C(=O)N[C@@H](C(C)C)C(=O)N1)C(N)=O [CP_SW3A_S1] (H-GCLVYLDQVCQ[Pra]-NH2; linker 2-10 via X1) | dramatically reduced labeling
3 | C#CC[C@H](N)C(=O)N[C@@H](CCC(N)=O)C(=O)N[C@H]1CSCc2cc(cc(OS(=O)(=O)F)c2)CSC[C@@H](C(=O)NCC(N)=O)NC(=O)[C@H](C(C)C)NC(=O)[C@H](CCC(N)=O)NC(=O)[C@H](CC(=O)O)NC(=O)[C@H](CC(C)C)NC(=O)[C@H](Cc2ccc(O)cc2)NC(=O)[C@H](C(C)C)NC(=O)[C@H](CC(C)C)NC1=O [CP_SW3A_S2] (H-[Pra]QCLVYLDQVCG-NH2; linker 3-11 via X1) | dramatically reduced labeling
